Assay results from PubChem BioAssay AID1117319 (Southern Research Institute, 2015).
Records with an inconclusive call do not appear.

Target: Virion infectivity factor (Human immunodeficiency virus type 1 group M subtype B (isolate BH10)) + Virion infectivity factor (Human immunodeficiency virus type 1 group M subtype B (isolate BRU/LAI)) + Virion infectivity factor (Human immunodeficiency virus type 1 group M subtype B (isolate PCV12)) + Virion infectivity factor (Human immunodeficiency virus type 1 group M subtype B (isolate HXB2)) + DNA dC->dU-editing enzyme APOBEC-3G (Homo sapiens) (UniProt P69720+P69721+P69722+P69723+Q9HC16)
Test: HIV-1 Vif–A3G interaction blockers – biochemical, TR-FRET, GST-Vif 1-94, biotin-A3G peptide, dose response retest, primary screen (AID 1117319);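 also: Vif residues 1-94 fused to GST binding biotinylated APOBEC3G peptide 110-148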
Settings: TR-FRET GST-Vif / biotin-A3G peptide binding

## O=C(O)CC(Cn1cnnn1)c1ccccc1 (configuration not stated)
  IC50: 58.8 µM

## Cc1c(Cl)cccc1NS(=O)(=O)c1ccc2c(c1)C1C=CCC1C(c1ccc(C(=O)O)cc1)N2 (configuration not stated)
  IC50: 2.54 µM

## Oc1ccc(-c2cn3c(n2)SCC3)cc1O
  IC50: 1.11 µM

## CCOC(=O)c1ccc(NS(=O)(=O)c2ccc3oc(=O)[nH]c3c2)cc1
  IC50: 88.2 µM

## COc1ccc(-c2cc(C(=O)N/N=C/c3ccc(OC)c(COCC(F)(F)C(F)F)c3)c3ccccc3n2)c(OC)c1
  IC50: 26.2 µM

## COc1ccccc1CNC(=O)COC(=O)c1cc(-c2ccco2)nc2ccccc12
  IC50: 9.99 µM

## O=C(Nc1ccccc1F)c1coc(=O)c(Br)c1
  IC50: 7.06 µM

## CC(=O)c1cccc(NC(=O)c2cnn3ccccc23)c1
  IC50: 77.6 µM

## COc1ccc(N=C2S/C(=C\c3ccc(C)o3)C(=O)N2CC(C)C)cc1
  IC50: 39.7 µM

## NC(=O)/C(=C/c1ccco1)C(N)=S
  IC50: 9.35 µM

## Cc1ccc(-c2ccc(CCC(=O)O)n2NC(N)=S)cc1
  IC50: 11.5 µM

## CCc1ccc(N2C(=O)NC(=O)/C(=C\C=C\c3ccco3)C2=O)cc1
  IC50: 7.09 µM

## Cc1ccccc1NC(=O)CSc1nnc(-c2ccco2)c(-c2ccco2)n1
  IC50: 1.17 µM

## Nc1cc(C(=O)O)ccc1N1CCCCC1
  IC50: 15 µM

## Oc1ccccc1/C=N/c1c(-c2ccco2)nc2ccccn12
  IC50: 0.48 µM

## O=S(=O)(O)c1cc(O)c2c(O)c(N=Nc3cc(Cl)ccc3O)c(S(=O)(=O)O)cc2c1
  IC50: 78.5 µM

## CCOc1cccc(=O)c2c(C)n(C)c(C)c12
  IC50: 11.6 µM

## COC(=O)C1=C(C)NC(=O)/C1=C\c1cc(C)n(-c2ccccc2C)c1C
  IC50: 14.2 µM

## CC1=C(C#N)C(=O)N(C2CCS(=O)(=O)C2)C(=O)/C1=C\c1ccc(C)o1 (configuration not stated)
  IC50: 1.42 µM

## Cc1c(C(=O)N2CCN(c3ccccc3F)CC2)sc2nc(-c3ccccc3)cn12
  IC50: 93 µM

## O=C(O)CC1OCC=C2CN3CCC45C6=CC(=O)C(=O)C([N+](=O)[O-])=C6NC4C1C2CC35 (configuration not stated)
  IC50: 16.3 µM

## Cc1ccc(N(CN2C(=O)C3CC=CCC3C2=O)C(=O)c2ccco2)cc1Cl (configuration not stated)
  IC50: 53.4 µM

## CC1(OC(=O)C2CCCC2)C(=O)C=C2C=C(c3ccsc3)OC=C2C1=O (configuration not stated)
  IC50: 8.75 µM

## COC(=O)c1ccc(COc2ccccc2/C=C(\C#N)C(=O)Nc2c(C)cc(C)cc2C)cc1
  IC50: 22.9 µM

## O=C(Nc1ccc(F)cc1)C(c1ccccc1)N1CCN(S(=O)(=O)c2ccc3ccccc3c2)CC1 (configuration not stated)
  IC50: 13.5 µM

## CCC(C)(C)n1nnnc1C(c1cc2cc(C)ccc2[nH]c1=O)N1CCCc2ccccc21 (configuration not stated)
  IC50: 93.5 µM

## O=S(=O)(O)c1cc(O)c2cc(Nc3ccccc3)ccc2c1
  IC50: 2.3 µM

## COC(=O)c1ccc(CC(=O)c2c(C)cc(O)cc2O)o1
  IC50: 2.33 µM

## O=C1NC(=O)C(=Cc2ccc(SC3CCCCC3)o2)C(=O)N1
  IC50: 29 µM

## Cc1ccc(/C=c2\sc3nc(-c4cccs4)nn3c2=O)o1
  IC50: 13.2 µM

## CN(Cc1cnc2nc(N)nc(N)c2n1)c1ccc(C(=O)NC(CCC(=O)O)C(=O)O)cc1 (configuration not stated)
  IC50: 49.2 µM

## Cc1cc(/C=N/Nc2ccc([N+](=O)[O-])cn2)c(C)n1-c1ccc(C(=O)O)cc1
  IC50: 3.25 µM

## O=c1cc(-c2ccc(O)cc2)oc2cc(O)c(C3OC(CO)C(O)C(O)C3O)c(O)c12 (configuration not stated)
  IC50: 7.05 µM

## C=CCN=c1scc(-c2ccco2)n1/N=C/c1ccc(O)c(O)c1O
  IC50: 1.38 µM

## Cc1c(C)n(C(=O)CSc2nc3ccccc3[nH]2)c2ccccc12
  IC50: 39.7 µM

## CC1(C)Cc2nc3sc(C(=O)O)c(N)c3cc2CS1
  IC50: 18.4 µM

## CCOC(=O)C1=C(O)/C(=C\c2ccc(CNC(=O)C(=O)Nc3ccccc3)o2)N=C1C
  IC50: 1.86 µM

## CN(C)c1ccc2cc(S(=O)(=O)O)cc(O)c2c1
  IC50: 10.2 µM

## CCCOc1ccc(N)cc1N
  IC50: 7.66 µM

## COc1ccc(CCNC(=O)CN2CCCc3ccccc32)cc1OC
  IC50: 91 µM

## CCOC(=O)c1sc2nc(CC(=O)OC)nc(NCc3ccco3)c2c1C
  IC50: 2.44 µM

## O=C(O)c1ccc(-n2cccc2/C=N\NC(=O)c2cc3cc(Br)ccc3o2)cc1
  IC50: 6.47 µM

## O=[N+]([O-])c1cc(CN2CCCC2)c2cccnc2c1O
  IC50: 2.48 µM

## CN1CCN(c2ccc(N)cc2)CC1
  IC50: 15.6 µM

## COC(=O)c1ccccc1NC(=O)C1CCCC1
  IC50: 0.55 µM

## COC1=C(N)C(=O)c2nc(C)ccc2C1=O
  IC50: 18.3 µM

## COc1cc2c3c(c1OC)C1(C=CC(=O)C=C1)CC3N(C(=O)CCC(=O)O)CC2 (configuration not stated)
  IC50: 13.3 µM

## CC(=O)c1ccc(NC(=O)CSc2nnc(-c3ccco3)c(-c3ccco3)n2)cc1
  IC50: 3.91 µM

## Oc1ccc(/C=N/N2CCCCC2)c(O)c1O
  IC50: 19.2 µM

## COC(=O)C(C)Sc1nnc(Cc2cc(=O)[nH]c(=O)[nH]2)n1-c1cc(C)ccc1C (configuration not stated)
  IC50: 95.6 µM

## CC(C)OP(=O)(OC(C)C)C(O)c1ccc(N(C)C)cc1 (configuration not stated)
  IC50: 75.9 µM

## COC(=O)Cn1ncn2c(cc3oc(C)cc32)c1=O
  IC50: 71.6 µM

## CC1=CC2(O)OCCN(CCO)C2=CC1=O (configuration not stated)
  IC50: 7.05 µM

## COC(=O)CCC(=O)OC1(C)C(=O)C=C2C=C3CCCN3C=C2C1=O (configuration not stated)
  IC50: 2.23 µM

## Cc1ccc2[nH]c(=O)c(C3C(C#N)=C(N)Oc4c3ccc3cccnc43)cc2c1 (configuration not stated)
  IC50: 24.3 µM

## O=C(N/N=C/C(Br)=C/c1ccccc1)c1cc(-c2ccco2)[nH]n1
  IC50: 5.12 µM

## CC(=O)c1ccc(S(=O)(=O)Nc2cccc(-n3cnnn3)c2)cc1
  IC50: 12.1 µM

## CN1CCN(S(=O)(=O)c2ccc(NC(=S)NC(=O)c3ccc(Cl)cc3)cc2)CC1
  IC50: 80.7 µM

## O=C(CSc1nc2ccccc2n1CCc1ccccc1)c1ccc(O)c(O)c1
  IC50: 2.14 µM

## Cc1cc(C)n(CC(=O)NNC(=O)c2ccc(NC(=O)CC#N)cc2)n1
  IC50: 91.3 µM

## Cn1cccc1/C=C1/C(=O)NC(=O)N(Cc2ccc(F)cc2)C1=O
  IC50: 8.76 µM

## Cc1cc(C(=O)CSc2nnnn2-c2ccccc2)c(C)n1CC1CCCO1 (configuration not stated)
  IC50: 9.78 µM

## CCOc1ccc(NC(=O)CCS(=O)(=O)c2ccc(Br)cc2)cc1
  IC50: 14.2 µM

## COc1ccc(S(=O)(=O)Nc2cc(SCC(=O)O)c(O)c3ccccc23)cc1
  IC50: 22.1 µM

## Cc1cc(C)c([N+](=O)[O-])cc1-c1ccc(/C=N/NC(=O)c2nonc2N)o1
  IC50: 52.7 µM

## Cn1c2ccccc2c2ccc3c(c21)C(=O)C=CC3=O
  IC50: 23.8 µM

## COc1ccc(OC)c(S(=O)(=O)Nc2ccc(O)c3ccccc23)c1
  IC50: 8.62 µM

## CC(=C/C(=O)O)/C=C/c1ccc(Cl)o1
  IC50: 27.4 µM

## O=C(COC(=O)Cc1ccc(Cl)cc1)NCc1ccco1
  IC50: 7.37 µM

## O=C1C2C3CCCC3=C3CCCC3C2C(=O)N1c1ccccc1 (configuration not stated)
  IC50: 3.44 µM

## CCOC(=O)C1=C(O)/C(=C/c2ccc(CNC(=O)C(=O)Nc3ccc(C)cc3)o2)N=C1C
  IC50: 33.3 µM

## COc1ccccc1NC(=O)c1oc2ccc(C)cc2c1C
  IC50: 98 µM

## Cc1ccn2cc(-c3nonc3C)cc2c1
  IC50: 22.5 µM

## Nc1ncnc2oc(-c3ccco3)c(-c3ccco3)c12
  IC50: 0.55 µM

## COc1ccc(C(=O)N/N=C/C23CC[C@@H](O)CC2(O)CC[C@@H]2[C@@H]3CCC3(C)C(C4=CC(=O)OC4)CCC23O)cc1 (some centres not stated)
  IC50: 86.3 µM

## O=[N+]([O-])c1cc2ccccc2c(O)c1O
  IC50: 22.2 µM

## NNc1ccc([N+](=O)[O-])c2[nH][nH]c(=O)c12
  IC50: 1.93 µM

## COc1ccc(O)c(N)c1
  IC50: 0.93 µM

## Cc1ccc(C)n1-c1cccc(C(=O)O)c1
  IC50: 0.72 µM

## CCc1c(C)sc(NC(=O)OC)c1C(=O)N1CCCCC1
  IC50: 42.7 µM

## O=C(OCC(=O)N1CCN(C(=O)c2ccco2)CC1)c1cc(-c2ccco2)nc2ccccc12
  IC50: 3.95 µM

## O=C(O)CCCCC1CCSS1 (configuration not stated)
  IC50: 7.67 µM

## CCN1C(=O)/C(=C\c2ccc([N+](=O)[O-])s2)C(=O)NC1=S
  IC50: 1.53 µM

## CNCc1ccccc1Sc1ccc(O)c(O)c1
  IC50: 2.64 µM

## COc1ccccc1NC(=O)c1cc2ccccc2o/c1=N\O
  IC50: 67.4 µM

## O=C(N/N=C/c1cccnc1)c1cc(O)c(O)c(O)c1
  IC50: 21.7 µM

## COc1ccc(O)c(C(=O)C2c3ccccc3C(=O)N2c2ccc(C)cc2)c1 (configuration not stated)
  IC50: 20.4 µM

## COc1ccc(NC(=O)CN(C)C(=O)c2cccc(-n3cccc3)c2)cc1
  IC50: 14.9 µM

## O=C1/C(=C/c2ccco2)SC(=S)N1C1CCS(=O)(=O)C1 (configuration not stated)
  IC50: 3.88 µM

## Cc1ccc(C(=O)C2=C(O)C(=O)N(c3ncccn3)C2c2ccc(F)cc2)o1 (configuration not stated)
  IC50: 21.8 µM

## C/C(=C\C(=O)c1ccc(C)cc1)Nc1cccc(O)c1
  IC50: 53.3 µM

## Cc1c(N=C2C=C(Br)C(=O)C(Br)=C2)c(=O)n(-c2ccccc2)n1C
  IC50: 14.1 µM

## Cc1ccc(/C=C/C2=Cc3c(sc(NC(=O)CSc4n[nH]c(N)n4)c3C#N)C(C)(C)C2)o1
  IC50: 0.8 µM

## C=C(c1ccc(OCCO)cc1)c1ccc(OCCO)cc1
  IC50: 56.6 µM

## Cc1c(C(=O)N2CCN(c3ccc(F)cc3)CC2)sc2nc(-c3ccccc3)cn12
  IC50: 48.7 µM

## Cc1cc(/C=C2\C(=O)NC(=O)N(c3cccc(F)c3)C2=O)c(C)n1-c1cc(C(=O)O)cc(C(=O)O)c1
  IC50: 10.2 µM

## Cc1sc2ncnc(SCc3ccco3)c2c1C
  IC50: 28.2 µM

## O=C1C2CCCN2C(c2ccc(Cl)cc2)N1c1ccccn1 (configuration not stated)
  IC50: 84.7 µM

## C=CCn1c(COc2ccc(F)cc2)nnc1SCC(=O)NC(=O)NCc1ccco1
  IC50: 40.7 µM

## CCCC(=O)NC1=C(Cl)C(=O)c2ccccc2C1=O
  IC50: 13.1 µM

## COc1cccc(C2C(C#N)=C(N)OC3=C2C(=O)CC(c2ccco2)C3)c1OCc1ccc(F)cc1 (configuration not stated)
  IC50: 7.82 µM

## COc1cccc(CNC(=O)CCNS(=O)(=O)c2cccs2)c1
  IC50: 1.44 µM

## COc1cccc(C=Nc2cc(C(C)C)c(O)cc2C)c1O
  IC50: 34.2 µM

## COc1cc(CC(=O)OCC(=O)Nc2cccc([N+](=O)[O-])c2)cc(OC)c1OC
  IC50: 11.8 µM

## CN(C)c1ccc(N/C=C/C(=O)c2ccco2)cc1
  IC50: 30.8 µM

## Cc1cc(-c2ccco2)n(-c2ccccc2)n1
  IC50: 50.4 µM

## O=C1NC(=O)C(=CN2CCc3ccccc32)C(=O)N1
  IC50: 91.3 µM

## CS(=O)(=O)N1CCCC(C(=O)NCCCN2CCC(Cc3ccccc3)CC2)C1 (configuration not stated)
  IC50: 84.4 µM

## Cc1nn(-c2ccccn2)c2c1C(=O)C(Br)CC2 (configuration not stated)
  IC50: 3.41 µM

## O=C(COc1ccccc1Cl)c1ccc[nH]1
  IC50: 2.91 µM

## CCN(CC)c1ccc(C(=C2C=CC(=[N+](CC)CC)C=C2)c2ccccc2)cc1
  IC50: 11.8 µM

## Cc1ccc(Nc2ccc(N)cc2S(=O)(=O)O)cc1
  IC50: 32 µM
